Assay [1] concerns the target T1, ErbB2 or EGFR.
T1 construct: enzymes purified from a baculovirus expression system; Reagent production was conducted essentially as described in Brignola, P. S., et al, (2002) J. Biol. Chem. 277(2): 1576-1585
As to the kind of experiment: ErbB family substrate phosphorylation enzyme assay (HTRF), Method A or Method B. Format: biochemical. The method, boiled down: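 Baculovirus-expressed EGFR or ErbB2 (0.8 or 10 nM in enzyme mix) phosphorylates biotinylated Peptide C with 20 µM ATP and 0.8 µM peptide (substrate-mix levels), MnCl2, pH 7.5. Reaction ran 90 min at 20 °C with EDTA stop and HTRF anti-phosphotyrosine read. Method A: enzyme added last; Method B: 1 h enzyme–compound preincubation.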
(In general: Time-resolved FRET reads energy transfer from a long-lived donor to a nearby acceptor.)

Assay [2] deals with BT474 and HN5 tumor cell lines. Kind of assay: Methylene blue growth inhibition assay (cellular Method A). Format: cell-based, Human. To be noted: Homo sapiens, BT-474, 72 h, 3 days, read-out: Activity (Method): growth inhibition IC50 class. Summed up:
(§1)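 Growth inhibition measured by methylene blue staining of biomass (OD 620) after 3 days' compound exposure at 37° C, final DMSO 0.3%. Cell lines: BT474 (10,000/well), HN5 (3,000/well) and Colo205, all in DMEM with 10% FBS; IC50 fitted by nonlinear regression against vehicle-treated wells.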

Assay [3] relates to Colo205 tumor cell lines. As to the kind of experiment: Methylene blue growth inhibition assay (cellular Method A), Colo205. Format: cell-based, Human. To be noted: Homo sapiens, COLO 205, 72 h, 3 days, read-out: Activity (Method): growth inhibition IC50 class. Summed up: as §1
Setting [4] is: Method B: enzyme mix pre-incubated with compound 1 hour at 20° C., started with substrate mix.
Setting [5] is: Method A: substrate mix added first, reaction started with enzyme mix.

Each structure is given as a SMILES string.

Broadly, the IC50 is the concentration that gives 50% inhibition.

Consider `O=C(Nc1cc(-c2nn3ccccc3c2-c2ccnc(Nc3ccc4c(c3)CNCC4)n2)ccc1F)c1c(F)cccc1F` [Example 160, 2,6-Difluoro-N-(2-fluoro-5-{3-[2-(1,2,3,4-tetrahydro-7-isoquinolinylamino)-4-pyrimidinyl]pyrazolo[1,5-a]pyridin-2-yl}phenyl)benzamide], for which the “Activity (Method): pIC50 class against ErbB2 or EGFR” value (from here on “Activity (Method): pIC50 class”) in assay [1] (setting [4]) is on record as “+++ (B) (at least one pIC50 measurement of greater than 7 against either ErbB2 or EGFR)”. The IC50 in assay [2] and in assay [3] was less than 100 nM each time.
Consider `COC(=O)CCCOc1ccc(Nc2nccc(-c3c(-c4cccc(NC(=O)c5c(F)cccc5F)c4)nn4ccccc34)n2)cc1Cl` [Example 162, Methyl 4-{[2-chloro-4-({4-[2-(3-{[(2,6-difluorophenyl)carbonyl]-amino}phenyl)pyrazolo[1,5-a]pyridin-3-yl]-2-pyrimidinyl}amino)phenyl]oxy}-butanoate], for which the “Activity (Method): pIC50 class” value in assay [1] (setting [4]) is “++ (B) (at least one pIC50 measurement greater than 6 against either ErbB2 or EGFR but no measurement greater than pIC50 of 7)”. In addition, the IC50 in assay [2] and in assay [3] was 100 to 1000 nM in each case.
In the case of `O=C(Nc1cccc(-c2nn3ccccc3c2-c2ccnc(Nc3cccc(CCN4CCOCC4)c3)n2)c1)c1c(F)cccc1F` [Example 54, 2,6-Difluoro-N-(3-{3-[2-({3-[2-(4-morpholinyl)ethyl]-phenyl}amino)-4-pyrimidinyl]pyrazolo[1,5-a]pyridin-2-yl}phenyl)benzamide], the “Activity (Method): pIC50 class” value in assay [1] (setting [5]) was “+++ (A) (at least one pIC50 measurement of greater than 7 against either ErbB2 or EGFR)”. For the same molecule, the values for the IC50 in assay [2] and in assay [3] were less than 100 nM and 100 to 1000 nM, respectively.
As to `O=C(Nc1cccc(-c2nn3ccccc3c2-c2ccnc(Nc3ccc4c(c3)OCCO4)n2)c1)c1ccccc1` [Example 4, N-(3-{3-[2-(2,3-Dihydro-benzo[1,4]dioxin-6-ylamino)-pyrimidin-4-yl]-pyrazolo[1,5-]pyridin-2-yl}-phenyl)-benzamide], the “Activity (Method): pIC50 class” value in assay [1] (setting [5]) is “+++ (A) (at least one pIC50 measurement of greater than 7 against either ErbB2 or EGFR)”. For the same molecule, the IC50 in assay [2] is less than 100 nM; in assay [3] it was 100 to 1000 nM.
`COc1ccc(Nc2nccc(-c3c(-c4cccc(NC(=O)c5c(F)cccc5F)c4)nn4ccccc34)n2)cc1O` [Example 166, 2,6-Difluoro-N-{3-[3-(2-{[3-hydroxy-4-(methyloxy)phenyl]amino}-4-pyrimidinyl)pyrazolo[1,5-a]pyridin-2-yl]phenyl}benzamide]: the “Activity (Method): pIC50 class” value in assay [1] (setting [4]) was “+++ (B) (at least one pIC50 measurement of greater than 7 against either ErbB2 or EGFR)”. Further, the IC50 in assay [2] is less than 100 nM; in assay [3], more than 1000 nM.
Consider `COc1cc(Nc2nccc(-c3c(-c4cccc(NC(=O)c5c(F)cccc5F)c4)nn4ccccc34)n2)cc(OC)c1OC` [Example 120, 2,6-Difluoro-N-{3-[3-(2-{[3,4,5-tris(methyloxy)-phenyl]amino}-4-pyrimidinyl)pyrazolo[1,5-a]pyridin-2-yl]phenyl}benzamide], for which the “Activity (Method): pIC50 class” value in assay [1] (setting [4]) is recorded as “+++ (B) (at least one pIC50 measurement of greater than 7 against either ErbB2 or EGFR)”. Moreover, the IC50 in assay [2] and in assay [3] was 100 to 1000 nM in each case.
For the molecule `CS(=O)(=O)Cc1ccc(Nc2nccc(-c3c(-c4cccc(NC(=O)c5c(F)cccc5F)c4)nn4ccccc34)n2)cc1` [Example 116, 2,6-Difluoro-N-(3-{3-[2-({4-[(methylsulfonyl)methyl]-phenyl}amino)-4-pyrimidinyl]pyrazolo[1,5-a]pyridin-2-yl}phenyl)benzamide], the “Activity (Method): pIC50 class” value in assay [1] (setting [4]) is reported as “+++ (B) (at least one pIC50 measurement of greater than 7 against either ErbB2 or EGFR)”. The results for the IC50 in assay [2] and in assay [3] were less than 100 nM and 100 to 1000 nM, respectively.
For the molecule `O=C(Nc1cccc(-c2nn3ccccc3c2-c2ccnc(Nc3ccccc3)n2)c1)c1ccc(Cl)cc1` [Example 142, 4-Chloro-N-(3-{3-[2-(phenylamino)-4-pyrimidinyl]pyrazolo[1,5-a]pyridin-2-yl}phenyl)benzamide], the “Activity (Method): pIC50 class” value in assay [1] (setting [5]) is “++ (A) (at least one pIC50 measurement greater than 6 against either ErbB2 or EGFR but no measurement greater than pIC50 of 7)”. Moreover, the IC50 in assay [2] and in assay [3] was more than 1000 nM in each case.
As to `CC(c1cccc(Nc2nccc(-c3c(-c4cccc(NC(=O)c5c(F)cccc5F)c4)nn4ccccc34)n2)c1)S(C)(=O)=O` (racemic) [Example 117, 2,6-Difluoro-N-(3-{3-[2-({3-[1-(methylsulfonyl)ethyl]-phenyl}amino)-4-pyrimidinyl]pyrazolo[1,5-a]pyridin-2-yl}phenyl)benzamide], the “Activity (Method): pIC50 class” value in assay [1] (setting [5]) is reported as “++ (A) (at least one pIC50 measurement greater than 6 against either ErbB2 or EGFR but no measurement greater than pIC50 of 7)”. The figures for the IC50 in assay [2] and in assay [3] were less than 100 nM and 100 to 1000 nM, respectively.
Consider `COc1cccc(Nc2nccc(-c3c(-c4cccc(NC(=O)c5c(F)cccc5F)c4)nn4ccccc34)n2)c1` [Example 28, 2,6-Difluoro-N-{3-[3-(2-{[3-(methyloxy)phenyl]-amino}-4-pyrimidinyl)pyrazolo[1,5-a]pyridin-2-yl]phenyl}benzamide], for which the “Activity (Method): pIC50 class” value in assay [1] (setting [4]) is given as “+++ (B) (at least one pIC50 measurement of greater than 7 against either ErbB2 or EGFR)”. Besides, the figures for the IC50 in assay [2] and in assay [3] were less than 100 nM and 100 to 1000 nM, respectively.
With `CN1CCN(Cc2cccc(Nc3nccc(-c4c(-c5cccc(NC(=O)c6c(F)cccc6F)c5)nn5ccccc45)n3)c2)CC1` [Example 57, 2,6-Difluoro-N-(3-{3-[2-({3-[(4-methyl-1-piperazinyl)-methyl]phenyl}amino)-4-pyrimidinyl]pyrazolo[1,5-a]pyridin-2-yl}phenyl)benzamide], the “Activity (Method): pIC50 class” value in assay [1] (setting [4]) is recorded as “+++ (B) (at least one pIC50 measurement of greater than 7 against either ErbB2 or EGFR)”. Besides, the IC50 in assay [2] is less than 100 nM; in assay [3], 100 to 1000 nM.
As for `O=C(Nc1cccc(-c2nn3ccccc3c2-c2ccnc(Nc3ccc(N4CCOCC4)cc3)n2)c1)c1cc(F)ccc1F` [Example 45, 2,5-Difluoro-N-{3-[3-(2-{[4-(4-morpholinyl)phenyl]amino}-4-pyrimidinyl)pyrazolo[1,5-a]pyridin-2-yl]phenyl}benzamide], in assay [1] (setting [5]), the “Activity (Method): pIC50 class” value was “+++ (A) (at least one pIC50 measurement of greater than 7 against either ErbB2 or EGFR)”. Further, the IC50 in assay [2] was less than 100 nM; in assay [3], 100 to 1000 nM.
With `Cn1cccc1C(=O)Nc1cccc(-c2nn3ccccc3c2-c2ccnc(Nc3cccc(C#N)c3)n2)c1` [Example 150, N-{3-[3-(2-(3-Cyanophenyl)amino-4-pyrimidinyl)-pyrazolo[1,5-b]pyridin-2-yl]-phenyl}-1-methyl-1H-pyrrole-2-carboxamide], the “Activity (Method): pIC50 class” value in assay [1] (setting [4]) is recorded as “+++ (B) (at least one pIC50 measurement of greater than 7 against either ErbB2 or EGFR)”. Besides, the IC50 in assay [2] is less than 100 nM; in assay [3], more than 1000 nM.
For `COc1ccc(-c2nn3ccccc3c2-c2ccnc(Nc3cccc(CN(C)C)c3)n2)cc1NC(=O)c1c(F)cccc1F` [Example 192, N-[5-{3-[2-({3-[(dimethylamino)methyl]phenyl}amino)-4-pyrimidinyl]pyrazolo[1,5-a]pyridin-2-yl}-2-(methyloxy)phenyl]-2,6-difluorobenzamide], the “Activity (Method): pIC50 class” value in assay [1] (setting [4]) is on record as “+ (B) (no pIC50 measurement greater than 6 against either ErbB2 or EGFR)”. The IC50 in assay [2] and in assay [3] was more than 1000 nM each time.

These data come from patent US7812022B2 (GlaxoSmithKline LLC, priority 2004, dated 2010).
